The record followed here is publication PMC11445181 (Frontiers in Plant Science, 2024).

The target of the assay is T1, LcCOMT (Conioselinum anthriscoides, UniProt A0A0K1YW34).
T1 construct: full-length cDNA in pET28a, His-tagged, E. coli BL21 (DE3), Ni-agarose purified; homodimer (N-terminal dimerization domain)
T1 sequence (A0A0K1YW34 1-362): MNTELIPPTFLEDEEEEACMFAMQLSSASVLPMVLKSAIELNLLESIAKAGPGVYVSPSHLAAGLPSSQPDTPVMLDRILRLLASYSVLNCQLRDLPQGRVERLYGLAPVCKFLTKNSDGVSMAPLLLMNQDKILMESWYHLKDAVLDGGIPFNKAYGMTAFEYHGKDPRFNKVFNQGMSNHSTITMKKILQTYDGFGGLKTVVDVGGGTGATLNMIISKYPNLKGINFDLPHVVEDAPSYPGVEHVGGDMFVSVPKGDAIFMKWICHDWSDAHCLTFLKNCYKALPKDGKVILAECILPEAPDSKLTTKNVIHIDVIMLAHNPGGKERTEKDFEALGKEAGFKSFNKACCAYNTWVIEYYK
As to the kind of experiment: inhibition of N-acetylserotonin methylation. Type of assay: biochemical. As to conditions: 2.0 mM N-acetylserotonin; caffeic acid is itself a substrate (competing substrate).

With `O=C(O)/C=C/c1ccc(O)c(O)c1` [caffeic acid], the “% reduction in activity at 1.0 mM” value came to 31.80%.
